The values below come from paper PMC10112131, “Pharmacological Elevation of Cellular Dihydrosphingomyelin Provides a Novel Antiviral Strategy against West Nile Virus Infection” (Antimicrobial Agents and Chemotherapy, 2023).

Several values for one entry are separate records, joined by “and”; a condition that tells them apart may be missing. Equal entries are not always repeated. Entries after “also recorded” stand apart in the source; their conditions may differ. Where two headings read alike, the source gives them in different places.

Series [1] concerns West Nile virus (WNV). As to conditions: Vero cells; for WNV infection: Fig 7.
A short description of series [2]: in vitro. As to conditions: African green monkey.
For series [3], the system named is West Nile virus (WNV). As to the kind of experiment: microbe, parasite or virus in culture. As to conditions: Vero, 24 h, read-out: EC50 WNV.
The subject of series [4] is dengue virus (DENV-2). As to conditions: Vero cells.
Series [5] relates to dengue virus (DENV-2). As to the kind of experiment: microbe, parasite or virus in culture. Conditions: DENV2, Vero, 48 h, read-out: EC50 DENV-2.
The subject of series [6] is vesicular stomatitis virus (VSV). As to the kind of experiment: microbe, parasite or virus in culture. Conditions: Vero, 24 h, read-out: EC50 VSV.
Series [7] deals with West Nile virus (WNV). As to the kind of experiment: microbe, parasite or virus in culture. Conditions: SH-SY5Y, 24 h, read-out: EC50 WNV.
Series [8] has as its system Usutu virus (USUV). As to conditions: Vero cells.
Series [9] deals with T1, ceramide desaturase (Des1) (Homo sapiens, UniProt O15121).
T1 sequence (O15121 1-323): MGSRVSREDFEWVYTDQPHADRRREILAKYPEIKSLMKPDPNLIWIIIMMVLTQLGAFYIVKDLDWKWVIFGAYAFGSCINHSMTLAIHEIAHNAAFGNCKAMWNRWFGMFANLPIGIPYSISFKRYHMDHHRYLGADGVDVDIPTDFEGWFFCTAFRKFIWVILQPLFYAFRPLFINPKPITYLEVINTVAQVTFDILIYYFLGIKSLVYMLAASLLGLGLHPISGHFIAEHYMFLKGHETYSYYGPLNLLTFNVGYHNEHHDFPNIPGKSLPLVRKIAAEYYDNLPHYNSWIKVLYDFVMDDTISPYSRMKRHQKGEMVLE

For series [10], the system named is West Nile virus (WNV). As to conditions: SH-SY5Y cells.
Series [11] relates to coxsackievirus B5 (CVB5). Description: microbe, parasite or virus in culture. As to conditions: for EC50: Enterovirus B, Vero, 24 h; for Antiviral efficacy against CVB5: Vero cells. It is filed as cell-based, CVB5 Faulkner.
The test system of series [12] is Zika virus (ZIKV). As to conditions: Vero cells.
Series [13] deals with vesicular stomatitis virus (VSV).
For series [14], the system named is WNV RVPs. As to the kind of experiment: Entry of WNV reporter virus particles (RVPs) into Vero cells, flow cytometry. It is filed as cell-based, West Nile virus. Conditions: Vero pretreated 24 h, read 48 h p.i.
The subject of series [15] is Vero cells. As to conditions: for CC50: read-out: CC50 in uninfected cells, 48-h treatment, Vero cells, ATP, 48 h.
For series [16], the system named is Usutu virus (USUV). As to the kind of experiment: microbe, parasite or virus in culture. Conditions: Vero, 24 h, read-out: EC50 USUV.
Series [17] can be described thus: in vitro. Conditions: human.
In series [18] the test system is Vero cells. Description: Lipidomics of treated Vero cells by mass spectrometry. Conditions: 10 μM, 24 h; for Level of dihydrosphingomyelins (dhSMs): relative to control; for dhSM/SM ratio: vs vehicle, almost all dhSMs analyzed. It is filed as cell-based.
Series [19] has as its system Vero cells. As to conditions: low density, 24 h.
Series [20] deals with Zika virus (ZIKV). As to the kind of experiment: microbe, parasite or virus in culture. Conditions: Vero, 24 h, read-out: EC50 ZIKV.
Series [21] relates to West Nile virus (WNV). As to the kind of experiment: Specific infectivity of WNV progeny released from treated Vero cells. It is filed as cell-based. Conditions: vs vehicle.

Take `CCCCCCCCOC(=O)c1cc(O)c(O)c(O)c1` [AL-071]: in [1], the “SI (CC50/EC50) WNV” value came out at 6.6. This molecule showed a CC50 in series [2] of 9.2 µM. In addition, in [3], the EC50 (in general, the concentration giving half of the maximal effect) was found to be 1.4 µM.

`O=C(OCCCCCCCCOC(=O)c1cc(O)c(O)c(O)c1)c1cc(O)c(O)c(O)c1` [AL-072]: in [1], the “SI (CC50/EC50) WNV” value is recorded as 5.9. The molecule further came in with a CC50 in series [2] of 23.2 µM. In addition, the concentration for a half-maximal effect (EC50) in [3] came to 3.9 µM.

As for `O=C(OCCCCCCCCCCCCOC(=O)c1cc(O)c(O)c(O)c1)c1cc(O)c(O)c(O)c1` [AL-085], in [1], the “SI (CC50/EC50) WNV” value was found to be 25.0. The molecule also registered a CC50 in [2] of 5 µM. In addition, the EC50 in series [3] worked out at 0.2 µM.

Turning to `O=C(NCCCCCCCCCCCCNC(=O)c1cc(O)c(O)c(O)c1)c1cc(O)c(O)c(O)c1` [AL-088, N,N′-(dodecane-1,12-diyl)bis(3,4,5-trihydroxybenzamide)], the “SI (CC50/EC50) DENV-2” value in series [4] is over 13.9. In addition, the concentration giving a half-maximal response (EC50) in series [5] was 7.2 µM; in [6] it was 25.3 µM; in series [7], 2.2 µM; in series [11], over 100 µM; in [16] it was 0.8 µM; in series [3], 2.2 µM. For the same molecule, the EC50 in [20] turned out to be 6.7 µM. The “SI (CC50/EC50) USUV” value in series [8] is given as over 125. Further, the “SI (CC50/EC50) WNV” value in [1] is on record as over 45.0; in series [10], 39.8. Also, the half-inhibitory concentration (IC50) – broadly, the point on the concentration scale where inhibition reaches its midpoint – in [9] turned out to be 1 µM. The CC50 is over 100 µM in series [2], over 100 µM in series [15] and 87.6 µM in series [17]. In series [11], the “Mean virus yield CVB5” value was 8.58E+07 PFU/mL and 7.12E+07 PFU/mL and 6.85E+07 PFU/mL and 8.01E+07 PFU/mL and 6.45E+07 PFU/mL and 7.26E+07 PFU/mL and 7.43E+07 PFU/mL and 8.33E+07 PFU/mL. Also, the “Antiviral efficacy against CVB5” value in series [11] is on record as “undetectable; also recorded: no antiviral activity was observed”. Further, the “SI (CC50/EC50) ZIKV” value in series [12] was over 14.9. Also, in [13], the “SI (CC50/EC50) VSV” value was over 4.0. In series [14], the “Number of cells infected with RVPs” value was “significantly reduced the number of infected cells”. The “Level of dihydroceramides (dhCers)” value in [18] is recorded as “Significantly elevated levels”. Further, in [18], the “Level of sphingomyelins (SMs)” value is “slight reductions”. For the same molecule, in series [18], the “Level of dihydrosphingomyelins (dhSMs)” value was “significant increase”. For the same molecule, the dhSM/SM ratio result in [18] was “significantly increased”. Further, the “Effect on proliferation of Vero cells” value in [19] is given as “only cytostatic effects on Vero cells at high concentrations”. Further, the “Specific infectivity of released WNV particles” value in series [21] is “significant reduction in their infectivity”.

Regarding `O=C(NCCCCCCCCCCCCNC(=O)c1ccc(O)c(O)c1O)c1ccc(O)c(O)c1O` [AL-274], the “SI (CC50/EC50) DENV-2” value in series [4] is over 10.8. For the same molecule, the EC50 in [5] was 9.2 µM; in [6], 43 µM; in [7], 1.9 µM; in [11], over 100 µM; in series [16] it was 1.3 µM; in [3], 0.24 µM. In addition, in [20], the 50% effective concentration (EC50) is 2.1 µM. Besides, the “SI (CC50/EC50) USUV” value in [8] is given as over 76.9. Besides, the “SI (CC50/EC50) WNV” value is listed as over 416 in series [1] and 20.5 in [10]. Also, in series [9], the concentration for half-maximal inhibition (IC50) came out at 7.8 µM. Moreover, the results for the CC50 in series [2], in [15] and in series [17] were over 100 µM, over 100 µM and 38.9 µM, respectively. In series [11], the “Mean virus yield CVB5” value is 9.25E+07 PFU/mL and 7.64E+07 PFU/mL and 8.20E+07 PFU/mL and 8.13E+07 PFU/mL and 8.84E+07 PFU/mL and 6.70E+07 PFU/mL and 7.30E+07 PFU/mL and 7.92E+07 PFU/mL. Moreover, in series [11], the “Antiviral efficacy against CVB5” value was “undetectable; also recorded: no antiviral activity was observed”. The “SI (CC50/EC50) ZIKV” value in series [12] was over 47.6. For the same molecule, the “SI (CC50/EC50) VSV” value in series [13] is on record as over 2.3. Besides, the “Number of cells infected with RVPs” value in [14] is given as “significantly reduced the number of infected cells”. In [18], the “Level of dihydrosphingomyelins (dhSMs)” value is recorded as “significant increase”. The dhSM/SM ratio entry in [18] is “significantly increased”. Also, the “Effect on proliferation of Vero cells” value in series [19] is “only cytostatic effects on Vero cells at high concentrations”. In addition, the “Specific infectivity of released WNV particles” value in series [21] is “significant reduction in their infectivity”.

`CCCCCCCCCCCCCC1=C([C@H](O)[C@@H](CO)NC(=O)CCCCCCC)C1` [GT-11, N-[(1R,2S)-2-hydroxy-1-hydroxymethyl-2-(2-tridecyl-1-cyclopropenyl)ethyl]octanamide, reference compound]: in series [1], the “WNV infection” value is “inhibited WNV infection in a dose-dependent manner”.

`O=C(O)c1cc(O)c(O)c(O)c1` [Gallic acid, 3,4,5-trihydroxybenzoic acid, reference compound]: in [1] (Fig 1B), the “WNV yield” value is “slight reduction in the WNV yield”. In series [2], this molecule had a CC50 of over 100 µM. The EC50 in [3] is about 100 µM.

Regarding `CCCCCCCCCCCCCCC[C@@H](O)[C@H](COP(=O)([O-])OCC[N+](C)(C)C)NC(=O)CCCCCCCCCCC` [dhSM, N-Lauroyl-D-erythro-sphinganylphosphorylcholine, reference compound], the “WNV infection” value in series [1] is reported as “significantly reduced WNV infection in a dose-dependent manner”. For the same molecule, in series [15], the “Cell viability estimated by ATP measurements” value was “without reducing cell viability”.
